target: CDK2 (human) (UniProt P24941); test: Enzyme Assay

Structure (SMILES) | IC50
CC(Sc1cnc(NC(=O)Cc2ccc(OCCCC(=O)NO)cc2)s1)c1ncc(C(C)(C)C)o1 (configuration not stated) | ≤ 100 nM
CNC(=O)CCCCCOc1ccc(CC(=O)Nc2ncc(SCc3ncc(C(C)(C)C)o3)s2)cc1 | ≤ 100 nM
CC(C)(C)c1cnc(CSc2cnc(NC(=O)CCCCC(=O)NO)s2)o1 | ≤ 100 nM
CC(C)(C)c1cnc(CSc2cnc(NC(=O)c3ccc(OCCCC(=O)NO)cc3)s2)o1 | ≤ 100 nM
CC(C)(C)c1cnc(CSc2cnc(NC(=O)Cc3ccc(OCCCCC(=O)NO)cc3)s2)o1 | ≤ 100 nM
CC(C)(C)c1cnc(CSc2cnc(NC(=O)Cc3ccc(OCCC(=O)NO)cc3)s2)o1 | ≤ 100 nM
CC(C)(C)c1cnc(CSc2cnc(NC(=O)c3ccc(OCCCCCCC(=O)NO)cc3)s2)o1 | ≤ 100 nM
CC(C)(C)c1cnc(CSc2cnc(NC(=O)C(C)(C)c3ccc(OCCCC(=O)NO)cc3)s2)o1 | ≤ 100 nM
CC(C)(C)c1cnc(CSc2cnc(NC(=O)c3ccc(/C=C/C(=O)NO)cc3)s2)o1 | ≤ 100 nM
CC(C)(C)c1cnc(CSc2cnc(NC(=O)c3ccc(OCCCCC(=O)NO)cc3)s2)o1 | ≤ 100 nM
CC(C)(C)c1cnc(CSc2cnc(NC(=O)C3CCN(CCCC(=O)NO)CC3)s2)o1 | ≤ 100 nM
CC(C)(C)c1cnc(CSc2cnc(NCC3CCN(c4ncc(C(=O)NO)cn4)CC3)s2)o1 | ≤ 100 nM
CC(C)(C)c1cnc(CSc2cnc(NC(=O)C3CCN(CCCCC(=O)NO)CC3)s2)o1 | ≤ 100 nM
CC(C)c1cnc(CSc2cnc(NC(=O)Cc3ccc(OCCCCCCC(=O)NO)cc3)s2)o1 | ≤ 100 nM
CC(C)(C)c1cnc(CSc2cnc(NC(=O)CCCNCCC(=O)NO)s2)o1 | ≤ 100 nM
CC(C)(C)c1cnc(CSc2cnc(NC(=O)C3CCN(CCCCCCC(=O)NO)CC3)s2)o1 | ≤ 100 nM
CC(C)(C)c1cnc(CSc2cnc(NC(=O)C3CCN(CCCCCC(=O)NO)CC3)s2)o1 | ≤ 100 nM
CC(C)(C)c1cnc(CSc2cnc(NC(=O)c3ccc(OCCCCCC(=O)NO)cc3)s2)o1 | ≤ 100 nM
CC(C)(C)c1cnc(CSc2cnc(NC(=O)CCCCCCC(=O)NO)s2)o1 | ≤ 100 nM
CC(C)(C)c1cnc(CSc2cnc(NC(=O)C3CCN(c4ncc(C(=O)NO)cn4)CC3)s2)o1 | ≤ 100 nM
CC(C)(C)c1cnc(CSc2cnc(NC(=O)c3cccc(/C=C/C(=O)NO)c3)s2)o1 | ≤ 100 nM
CC(C)(C)c1cnc(CSc2cnc(NC(=O)Nc3ccc(OCCCC(=O)NO)cc3)s2)o1 | ≤ 100 nM
CC(C)(C)c1cnc(CSc2cnc(NC(=O)Cc3ccc(OCCCC(=O)NO)cc3)s2)o1 | ≤ 100 nM
CC(C)(C)c1cnc(CSc2cnc(NC(=O)CCCNCCCCCCC(=O)NO)s2)o1 | ≤ 100 nM
CC(C)(C)c1cnc(CSc2cnc(NC(=O)Oc3ccc(OCCCC(=O)NO)cc3)s2)o1 | ≤ 100 nM
CC(C)(C)c1cnc(CSc2cnc(NC(=O)CCCC(=O)NO)s2)o1 | ≤ 100 nM
CC(C(=O)Nc1ncc(SCc2ncc(C(C)(C)C)o2)s1)c1ccc(OCCCC(=O)NO)cc1 (configuration not stated) | ≤ 100 nM

From the Kinase Knowledgebase extract (Sharma et al. 2016)
